Data published in ChEMBL document CHEMBL5104211, “Design and synthesis of bile acid derivatives and their activity against colon cancer” (RSC Med Chem, 2022).
Active and inactive are the calls of the source. No cut-off for these calls is given here.

Assays:
LoVo = assay: Anticancer activity against human LoVo cells assessed as inhibition of cell proliferation by MTT assay; format: functional, cell-based
HCT-116 [1] = assay: […] activity in human HCT-116 cells assessed as upregulation of cleaved caspase-3 level at 30 micromol/L incubated for 48 hrs by Western blot analysis; format: functional, cell-based; settings: dose 30.0 µmol/L
Huh-7 = assay: Anticancer activity against human Huh-7 cells assessed as inhibition of cell proliferation by MTT assay; format: functional, cell-based
HCT-116 [2] = assay: Induction of apoptosis in human HCT-116 cells assessed as late apoptotic cells at 30 micromol/L incubated for 48 hrs by annexin V-FITC and propidium iodide staining based flow cytometry analysis (reference value: 7.13%); format: functional; settings: dose 30 µmol/L, at 30 µM
SW480 = assay: Anticancer activity against human SW480 cells assessed as inhibition of cell proliferation by MTT assay; format: functional, cell-based
HCT-116 [3] = assay: Induction of apoptosis in human HCT-116 cells assessed as early apoptotic cells at 30 micromol/L incubated for 48 hrs by annexin V-FITC and propidium iodide staining based flow cytometry analysis (reference value: 2.69%); format: functional; settings: dose 30 µmol/L, at 30 µM
[4] = Cytotoxicity against human WI-38 cells assessed as inhibition of cell proliferation by MTT assay; format: toxicity, cell-based
HCT-116 [5] = assay: Induction of ROS generation in human HCT-116 cells assessed as increase in intracellular ROS level incubated for 48 hrs by DCFH-DA staining based flow cytometric analysis (Rvb=73.65%); format: functional
HCT-116 [6] = assay: Anticancer activity against human HCT-116 cells assessed as inhibition of cell proliferation by MTT assay; format: functional, cell-based
HCT-116 [7] = assay: Induction of apoptosis in human HCT-116 cells assessed as increase in number of apoptotic cells at 30 micromol/L incubated for 48 hrs by DAPI staining based fluorescence microscopy; format: functional, cell-based; settings: dose 30.0 µmol/L
HT-29 = assay: Anticancer activity against human HT-29 cells assessed as inhibition of cell proliferation by MTT assay; format: functional, cell-based
RAW264.7 [8] = assay: Anti-inflammatory activity against mouse RAW264.7 cells assessed as inhibition of LPS-induced NO production incubated for 24 hrs in presence of LPS by Griess reagent-based assay; format: functional, cell-based; settings: RAW264.7, 24 h
RAW264.7 [9] = assay: Anti-inflammatory activity against mouse RAW264.7 cells assessed as downregulation of LPS-induced TNF-alpha level at 10 to 25 micromol/L incubated for 24 hrs in presence of LPS by ELISA; format: functional, cell-based; settings: dose 10-25 µmol/L
HCT-116 [10] = assay: […] activity in human HCT-116 cells assessed as downregulation of Bcl-2 level at 30 micromol/L incubated for 48 hrs by Western blot analysis; format: functional, cell-based; settings: dose 30.0 µmol/L
HCT-116 [11] = assay: Induction of apoptosis in human HCT-116 cells assessed as apoptotic body formation at 30 micromol/L incubated for 48 hrs by Giemsa staining based fluorescence microscopy; format: functional, cell-based; settings: dose 30.0 µmol/L
HCT-116 [12] = assay: Induction of mitochondrial membrane potential loss in human HCT-116 cells and measured after 48 hrs by TRME staining based flow cytometric analysis (reference value: 97.52%); format: functional
HCT-116 [13] = assay: Induction of apoptosis in human HCT-116 cells assessed as retraction of the cytoplasm at 30 micromol/L incubated for 48 hrs by Giemsa staining based fluorescence microscopy; format: functional, cell-based; settings: dose 30.0 µmol/L
HCT-116 [14] = assay: Induction of apoptosis in human HCT-116 cells assessed as viable cells at 30 micromol/L incubated for 48 hrs by annexin V-FITC and propidium iodide staining based flow cytometry analysis (reference value: 89.29%); format: functional; settings: HCT-116, 48 h, dose 30 µmol/L, read-out: Activity
HCT-116 [15] = assay: Anticancer activity against human HCT-116 cells assessed as inhibition of cell proliferation at 5 to 50 micromol/L incubated for 24 hrs by MTT assay; format: functional, cell-based; settings: dose 5-50 µmol/L, DDE = dose-dependent effect
A549 = assay: Anticancer activity against human A549 cells assessed as inhibition of cell proliferation by MTT assay; format: functional, cell-based
RKO = assay: Anticancer activity against human RKO cells assessed as inhibition of cell proliferation by MTT assay; format: functional, cell-based
HCT-116 [16] = assay: Induction of apoptosis in human HCT-116 cells assessed as unclear cell rupture edges at 30 micromol/L incubated for 48 hrs by Giemsa staining based fluorescence microscopy; format: functional; settings: dose 30.0 µmol/L
HCT-116 [17] = assay: Anticancer activity against human HCT-116 cells assessed as decrease in number of colonies at 25 micromol/L and measured after 48 hrs by crystal violet dye based colony formation assay; format: functional, cell-based; settings: dose 25.0 µmol/L
HCT-116 [18] = assay: Anticancer activity against human HCT-116 cells assessed as decrease in size of colonies at 25 micromol/L and measured after 48 hrs by crystal violet dye based colony formation assay; format: functional, cell-based; settings: dose 25.0 µmol/L
HCT-116 [19] = assay: Induction of apoptosis in human HCT-116 cells assessed as contraction of cell volume at 30 micromol/L incubated for 48 hrs by Giemsa staining based fluorescence microscopy; format: functional; settings: dose 30.0 µmol/L
SK-HEP1 = assay: Anticancer activity against human SK-HEP1 cells assessed as inhibition of cell proliferation by MTT assay; format: functional, cell-based
MGC-803 = assay: Anticancer activity against human MGC-803 cells assessed as inhibition of cell proliferation by MTT assay; format: functional, cell-based
HCT-116 [20] = assay: Induction of apoptosis in human HCT-116 cells assessed as necrotic cells at 30 micromol/L incubated for 48 hrs by annexin V-FITC and propidium iodide staining based flow cytometry analysis (reference value: 0.88%); format: functional; settings: dose 30 µmol/L, at 30 µM
HCT-116 [21] = assay: Anticancer activity in human HCT-116 cells assessed as downregulation of phosphorylated STAT3 level at 30 micromol/L incubated for 48 hrs by Western blot analysis; format: functional, cell-based; settings: dose 30.0 µmol/L
HCT-116 [22] = assay: Induction of cell cycle arrest in human HCT-116 cells assessed as accumulation G2/M phase at 25 micromol/L and measured after 48 hrs by propidium iodide staining based flow cytometry analysis (Rvb= 11%); format: functional; settings: dose 25 µmol/L, at 25 µM
HCT-116 [23] = assay: Anticancer activity against human HCT-116 cells assessed as inhibition of cell proliferation at 20 to 40 micromol/L incubated for 24 to 72 hrs by MTT assay; format: functional, cell-based; settings: dose 20-40 µmol/L, time 24-72 hrs, TDE = time-dependent effect
HCT-116 [24] = assay: Induction of apoptosis in human HCT-116 cells assessed as retraction of the nucleus at 30 micromol/L incubated for 48 hrs by Giemsa staining based fluorescence microscopy; format: functional, cell-based; settings: dose 30.0 µmol/L
HCT-116 [25] = assay: Inhibition of cell invasion in human HCT-116 cells at 20 micromol/L and measured after 24 hrs by crystal violet staining based transwell assay; format: functional; settings: HCT-116, 24 h, dose 20 µmol/L
HCT-116 [26] = assay: Inhibition of cell migration in human HCT-116 cells at 20 micromol/L and measured after 24 hrs by crystal violet staining based transwell assay; format: functional; settings: HCT-116, 24 h, dose 20 µmol/L
HCT-116 [27] = assay: Anticancer activity against human HCT-116 cells assessed as inhibition of cell proliferation at 40 micromol/L incubated for 24 hrs by MTT assay; format: functional; settings: HCT-116, 24 h, dose 40 µmol/L
HCT-116 [28] = assay: Anticancer activity against human HCT-116 cells assessed as inhibition of cell proliferation at 20 micromol/L incubated for 24 hrs by MTT assay; format: functional; settings: HCT-116, 24 h, dose 20 µmol/L

| IC50 (LoVo) [µM] | IC50 (Huh-7) [µM] | IC50 (SW480) [µM] | IC50 (HCT-116 [6]) [µM] | IC50 (HT-29) [µM] | IC50 (A549) [µM] | Compound | Activity (HCT-116 [2]) [%] | Activity (HCT-116 [3]) [%] | IC50 [4] [µM] | Activity (HCT-116 [5]) [%] | Activity (HCT-116 [10]) | Activity (HCT-116 [11]) | Activity (HCT-116 [12]) [%] | Activity (HCT-116 [13]) | viability at 30 µM (HCT-116 [14]) [%] | inhibition (HCT-116 [15]) | IC50 (RKO) [µM] | Activity (HCT-116 [16]) | Activity (HCT-116 [17]) | Activity (HCT-116 [18]) | also measured |
| --- | --- | --- | --- | --- | --- | --- | --- | --- | --- | --- | --- | --- | --- | --- | --- | --- | --- | --- | --- | --- | --- |
| 28.4 | 52.1 | 31.3 | 25 | 27.2 | 51.1 | COC(=O)c1ccc(COC(=O)CC[C@@H](C)[C@H]2CC[C@H]3[C@@H]4[C@H](O)C[C@@H]5C[C@H](O)CC[C@]5(C)[C@H]4C[C@H](O)[C@]23C)cc1 | 74.4 | 1.33 | > 500 | 91.33 | Active | Active | 71.17 | Active | 23.1 | Dde | 41.2 | Active | Active | Active | Activity (HCT-116 [1]): Active; Activity (HCT-116 [7]): Active; IC50 (RAW264.7 [8]): 20.6 µM; Activity (RAW264.7 [9]): Active; Activity (HCT-116 [19]): Active; IC50 (SK-HEP1): 41.6 µM; IC50 (MGC-803): 28.5 µM; Activity (HCT-116 [20]): 1.19%; Activity (HCT-116 [21]): Active; Activity (HCT-116 [22]): 89.39%; inhibition (HCT-116 [23]): Tde; Activity (HCT-116 [24]): Active; inhibition at 20 µM (HCT-116 [25]): 80%; inhibition at 20 µM (HCT-116 [26]): 80% |
| 18.7 | 51.6 | 23.6 | 21.3 | 22.7 | 40.5 | Cc1ccc(COC(=O)CC[C@@H](C)[C@H]2CC[C@H]3[C@@H]4[C@H](O)C[C@@H]5C[C@H](O)CC[C@]5(C)[C@H]4C[C@H](O)[C@]23C)cc1 | 72.61 | 1.3 | > 500 | 95.87 | Active | Active | 51.59 | Active | 25.3 | Dde | 27.6 | Active | Active | Active | Activity (HCT-116 [7]): Active; IC50 (RAW264.7 [8]): 20.6 µM; Activity (RAW264.7 [9]): Active; inhibition at 40 µM (HCT-116 [27]): 90%; Activity (HCT-116 [19]): Active; IC50 (SK-HEP1): 60.2 µM; IC50 (MGC-803): 21.9 µM; inhibition at 20 µM (HCT-116 [28]): < 40%; Activity (HCT-116 [20]): 0.81%; Activity (HCT-116 [21]): Active; Activity (HCT-116 [22]): 90.66%; inhibition (HCT-116 [23]): Tde; Activity (HCT-116 [24]): Active; inhibition at 20 µM (HCT-116 [25]): 80%; inhibition at 20 µM (HCT-116 [26]): 80% |
| 28.3 | 74.8 | 36.1 | 28.9 | 29.2 | 121 | COC(=O)c1ccc(COC(=O)CC[C@@H](C)[C@H]2CC[C@H]3[C@@H]4[C@H](O)C[C@@H]5C[C@H](O)CC[C@]5(C)[C@H]4CC[C@]23C)cc1 | 62.13 | 2.12 | > 500 | 85.75 | Active | Active | 79.08 | Active | 34.9 | Dde | 44.4 | Active | Active | Active | Activity (HCT-116 [1]): Active; Activity (HCT-116 [19]): Active; IC50 (SK-HEP1): 49.9 µM; IC50 (MGC-803): 31.6 µM; Activity (HCT-116 [20]): 0.89%; Activity (HCT-116 [21]): Active; Activity (HCT-116 [22]): 63.98%; inhibition (HCT-116 [23]): Tde; Activity (HCT-116 [24]): Active; inhibition at 20 µM (HCT-116 [26]): 30% |
